The structures appear in SMILES notation.

Test [1] concerns Phosphorylation of ERK1/2 in AsPC-1 cells. As to the kind of experiment: Phospho-ERK1/2 MSD Assay (AsPC-1 cells). The note with it: Homo sapiens, ASPC1, 2 h, 2 hours treatment, read-out: p-ERK (AsPC-1 cells) IC50. The class given is cell-based. A digest of the protocol: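 Read-out: MSD electrochemiluminescent detection of phosphorylated ERK1/2 in whole-cell lysates, fitted to a 4-parameter logistic curve for IC50. Prior to lysis, AsPC-1 cells (25,000 per well) received a 2 h compound dose-response at 37 °C.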

The target of test [2] is GDP-bound KRAS protein (aa 1-169), containing both G12D and C118A amino acid substitutions (Homo sapiens, UniProt P01116, C118A/G12D). As to the kind of experiment: KRAS G12D Coupled Nucleotide Exchange Assay. In kind it is biochemical. The note with it: 2 h compound pre-incubation. The protocol: Following compound pre-incubation, purified SOS protein (aa 564-1049) and GTP (Roche 10106399001) were added to the assay wells and incubated for an additional 30 min. […] The assay plates were then read on a PerkinElmer EnVision Multilabel Reader, using AlphaScreen® technology, and data were analyzed using a 4-parameter logistic model to calculate IC50 values.
Chain of GDP-bound KRAS protein (aa 1-169), containing both G12D and C118A amino acid substitutions (P01116 1-169 isoform P01116-2 G12D/C118A): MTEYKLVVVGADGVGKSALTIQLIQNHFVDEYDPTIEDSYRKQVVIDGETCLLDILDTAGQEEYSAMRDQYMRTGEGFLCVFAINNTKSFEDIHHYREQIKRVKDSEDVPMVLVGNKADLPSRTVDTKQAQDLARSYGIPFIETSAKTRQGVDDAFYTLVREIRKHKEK

In test [3] the test system is Phosphorylation of ERK1/2 in A-427 cells. As to the kind of experiment: Phospho-ERK1/2 MSD Assay (A-427 cells). In kind it is cell-based. The note with it: Homo sapiens, A-427, 2 h, 2 h treatment, read-out: p-ERK (A427 cells) IC50. In short, it runs like this:
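ERK1/2 phosphorylation measured by Meso Scale whole-cell lysate assay after A-427 cells were exposed to a titration of compound for 2 h at 37 °C.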

Test [4] addresses His-tagged KRAS G12D protein (Homo sapiens, UniProt P01116, G12D). As to the kind of experiment: KRAS G12D TR-FRET Assay. In kind it is binding. A general note: TR-FRET usually uses a lanthanide donor and a delayed reading to cut background.

Chain of His-tagged KRAS G12D protein (P01116 1-188 isoform P01116-2 G12D): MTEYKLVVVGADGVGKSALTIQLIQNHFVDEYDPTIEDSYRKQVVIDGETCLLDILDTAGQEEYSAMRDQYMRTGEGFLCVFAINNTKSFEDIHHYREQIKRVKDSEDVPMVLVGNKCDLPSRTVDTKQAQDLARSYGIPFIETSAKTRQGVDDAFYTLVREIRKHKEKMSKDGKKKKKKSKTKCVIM

One may read the IC50 as the concentration needed to halve the response being measured. For the compound `Cc1c(Cl)cc2cn[nH]c2c1-c1ccc2c(N3C[C@H]4CC[C@@H](C3)N4)nc(OC[C@@]34CCCN3C[C@H](F)C4)nc2c1F` [Example 165, 4-((1R,5S)-3,8-diazabicyclo[3.2.1]octan-3-yl)-7-(5-chloro-6-methyl-1H-indazol-7-yl)-8-fluoro-2-(((2R,7aS)-2-fluorotetrahydro-1H-pyrrolizin-7a(5H)-yl)methoxy) quinazoline], the IC50 in test [1] is 3280 nM; in test [3] it was 4430 nM; in test [4] it was 27 nM. Further, the “Avg 2 h Coupled Exchange IC50” value in test [2] came to 11 nM.
For `Oc1cc(-c2ccc3c(N4[C@@H]5CNC[C@H]4COC5)nc(OC[C@@]45CCCN4C[C@H](F)C5)nc3c2F)c2ccccc2c1` [Example 2, 4-(4-((1R,5S)-3-oxa-7,9-diazabicyclo[3.3. 1]nonan-9-yl)-8-fluoro-2-(((2R,7aS)-2-fluorotetrahydro-1H-pyrrolizin-7a(5H)-yl)methoxy)quinazolin-7-yl)naphthalen-2-ol] the same measures were 721 nM, 222 nM, 7 nM and 4 nM.
In the case of `N#Cc1cc(O)cc(-c2c(F)cc3c(N4C[C@H]5CC[C@@H](C4)N5)nc(OC[C@@]45CCCN4C[C@H](F)C5)nc3c2F)c1C1CC1` [Example 227, 3-(4-((1R,5S)-3,8-Diazabicyclo[3.2.1]octan-3-yl)-6,8-difluoro-2-(((2R,7aS)-2-fluorotetrahydro-1H-pyrrolizin-7a(5H)-yl)methoxy)quinazolin-7-yl)-2-cyclopropyl-5-hydroxybenzonitrile], the results for the IC50 in test [1], in test [3] and in test [4] were 308 nM, 48 nM and 3 nM, respectively. Moreover, in test [2], the “Avg 2 h Coupled Exchange IC50” value came to 4 nM.
The like results for `N#Cc1cc2c(N3C[C@H]4CC[C@@H](C3)N4)nc(OC[C@@]34CCCN3C[C@H](F)C4)nc2c(F)c1-c1cc(O)cc2ccccc12` [Example 219, 4-((1R,5S)-3,8-Diazabicyclo[3.2.1]octan-3-yl)-8-fluoro-2-(((2R,7aS)-2-fluorotetrahydro-1H-pyrrolizin-7a(5H)-yl)methoxy)-7-(3-hydroxynaphthalen-1-yl)quinazoline-6-carbonitrile] were, in that order, 531 nM, 92 nM, 1 nM and 2 nM.
For `C#Cc1c(F)ccc2cc(O)cc(-c3ccc4c(N5C[C@H]6CC[C@@H](C5)N6)nc(OC[C@@]56CCCN5C[C@H](F)C6)nc4c3F)c12` [Example 186, 4-(4-((1R,5S)-3,8-diazabicyclo[3.2.1]octan-3-yl)-8-fluoro-2-(((2R,7aS)-2-fluorotetrahydro-1H-pyrrolizin-7a(5H)-yl)methoxy)quinazolin-7-yl)-5-ethynyl-6-fluoronaphthalen-2-ol] the same measures were 5 nM, 1 nM, 3 nM and 3 nM.
The like results for `Oc1cc(-c2c(F)cc3c(N4C[C@H]5CC[C@@H]4CN5)nc(OC[C@@]45CCCN4C[C@H](F)C5)nc3c2F)c2ccccc2c1Cl` [Example 206, 4-(4-((1R,4R)-2,5-Diazabicyclo[2.2.2]octan-2-yl)-6,8-difluoro-2-(((2R,7aS)-2-fluorotetrahydro-1H-pyrrolizin-7a(5H)-yl)methoxy)quinazolin-7-yl)-1-chloronaphthalen-2-ol] were, in that order, 705 nM, 116 nM, 30 nM and 42 nM.
With `Cc1cc2[nH]ncc2c(-c2ccc3c(N4C[C@H]5CC[C@@H](C4)N5)nc(OC[C@@]45CCCN4C[C@H](F)C5)nc3c2)c1Cl` [Example 39, 4-((1R,5S)-3,8-diazabicyclo[3.2. 1]octan-3-yl)-7-(5-chloro-6-methyl-1H-indazol-4-yl)-2-(((2R,7aS)-2-fluorotetrahydro-1H-pyrrolizin-7a(5H)-yl)methoxy) quinazoline], the figures for the IC50 in test [1], in test [3] and in test [4] were 1890 nM, 569 nM and 20 nM, respectively. Besides, the “Avg 2 h Coupled Exchange IC50” value in test [2] is 9 nM.
The like results for `CN1C[C@H](F)C[C@H]1COc1nc(N2C[C@H]3C[C@@H](C2)N3)c2ccc(-c3cc(O)cc4ccccc34)c(F)c2n1` [Example 7, 4-(4-((1R,5S)-3,6-diazabicyclo[3.1. 1]heptan-3-yl)-8-fluoro-2-(((2S,4R)-4-fluoro-1-methylpyrrolidin-2-yl)methoxy)quinazolin-7-yl)naphthalen-2-ol] were, in that order, 3300 nM, 3510 nM, 75 nM and 35 nM.
Turning to `CCc1c(F)ccc2cc(O)cc(-c3c(F)cc4c(N5[C@@H]6CC[C@H]5CNC6)nc(OC[C@@H]5C[C@@H](F)CN5C)nc4c3F)c12` [Example 158, 4-(4-((1R,5S)-3,8-diazabicyclo[3.2.1]octan-8-yl)-6,8-difluoro-2-(((2S,4R)-4-fluoro-1-methylpyrrolidin-2-yl)methoxy)quinazolin-7-yl)-5-ethyl-6-fluoronaphthalen-2-ol], the IC50 in test [1] was 511 nM; in test [3] it was 228 nM; in test [4], 7 nM. Further, the “Avg 2 h Coupled Exchange IC50” value in test [2] was determined as 4 nM.
The like results for `CCc1c(F)ccc2cc(O)cc(-c3cc4nc(OC[C@@]56CCCN5C[C@H](F)C6)nc(N5C[C@H]6CC[C@@H](C5)N6)c4cc3N)c12` [Example 203, 4-(6-Amino-4-((1R,5S)-3,8-diazabicyclo[3.2.1]octan-3-yl)-2-(((2R,7aS)-2-fluorotetrahydro-1H-pyrrolizin-7a(5H)-yl)methoxy)quinazolin-7-yl)-5-ethyl-6-fluoronaphthalen-2-ol] were, in that order, 171 nM, 62 nM, 6 nM and 2 nM.
The like results for `CN1C[C@H](F)C[C@H]1COc1nc(N2C[C@H]3C[C@@H](C2)N3)c2cc(F)c(-c3cc(O)cc4ccccc34)c(F)c2n1` [Example 19, 4-(4-((1R,5S)-3,6-diazabicyclo[3.1. 1]heptan-3-yl)-6,8-difluoro-2-(((2S,4R)-4-fluoro-1-methylpyrrolidin-2-yl)methoxy)quinazolin-7-yl)naphthalen-2-ol] were, in that order, 2090 nM, 1790 nM, 58 nM and 28 nM.
The like results for `Oc1cc(-c2c(F)cc3c(N4C[C@H]5CC[C@@H](C4)N5)nc(OC[C@@]45CCCN4C[C@H](F)C5)nc3c2F)c2c(F)cccc2c1` [Example 159, 4-(4-((1R,5S)-3,8-diazabicyclo[3.2.1]octan-3-yl)-6,8-difluoro-2-(((2R,7aS)-2-fluorotetrahydro-1H-pyrrolizin-7a(5H)-yl)methoxy)quinazolin-7-yl)-5-fluoronaphthalen-2-ol] were, in that order, 77 nM, 13 nM, 3 nM and 5 nM.
Turning to `CN1CCC[C@H]1CCOc1nc(N2C[C@H]3C[C@@H](C2)N3)c2cc(F)c(-c3cc(O)cc4ccccc34)c(F)c2n1` [Example 21, 4-(4-((1R,5S)-3,6-diazabicyclo[3.1. 1]heptan-3-yl)-6,8-difluoro-2-(2-((S)-1-methylpyrrolidin-2-yl)ethoxy)quinazolin-7-yl)naphthalen-2-ol], the IC50 in test [1] stood at 9080 nM; in test [3], 18100 nM; in test [4], 314 nM. The “Avg 2 h Coupled Exchange IC50” value in test [2] amounted to 78 nM.
Take `Oc1cc(Cl)c(C2CC2)c(-c2c(F)cc3c(N4CC5CCC4CN5)nc(OC[C@@]45CCCN4C[C@H](F)C5)nc3c2F)c1` (stereo in doubt) [Example 143, 3-(4-((1R,4R)-2,5-diazabicyclo[2.2.2]octan-2-yl)-6,8-difluoro-2-(((2R,7aS)-2-fluorotetrahydro-1H-pyrrolizin-7a(5H)-yl)methoxy)quinazolin-7-yl)-5-chloro-4-cyclopropylphenol]: the IC50 came to 46 nM in test [1], 13 nM in test [3] and 3 nM in test [4]. Further, the “Avg 2 h Coupled Exchange IC50” value in test [2] turned out to be 3 nM.
For `Cc1c(Cl)cc2[nH]ncc2c1-c1ccc2c(N3C[C@H]4CC[C@@H](C3)N4)nc(OC[C@@]34CCCN3C[C@H](F)C4)nc2c1` [Example 40, 4-((1R,5S)-3,8-diazabicyclo[3.2. 1]octan-3-yl)-7-(6-chloro-5-methyl-1H-indazol-4-yl)-2-(((2R,7aS)-2-fluorotetrahydro-1H-pyrrolizin-7a(5H)-yl)methoxy) quinazoline], the IC50 was determined as 2390 nM in test [1], 686 nM in test [3] and 11 nM in test [4]. For the same compound, the “Avg 2 h Coupled Exchange IC50” value in test [2] turned out to be 6 nM.
`Nc1ccc(C2CC2)c(-c2c(F)cc3c(N4C[C@@H]5CC[C@H]4CN5)nc(OC[C@@]45CCCN4C[C@H](F)C5)nc3c2F)c1` [Example 115, 3-(4-((1S,4S)-2,5-diazabicyclo[2.2.2]octan-2-yl)-6,8-difluoro-2-(((2R,7aS)-2-fluorotetrahydro-1H-pyrrolizin-7a(5H)-yl)methoxy)quinazolin-7-yl)-4-cyclopropylaniline]: the IC50 in test [1] came to 2790 nM; in test [3], 2740 nM; in test [4], 32 nM. Further, the “Avg 2 h Coupled Exchange IC50” value in test [2] is 23 nM.

Source of the values: patent US20250059205A1, “Heterocyclic Compounds and Methods of Use” (AMGEN INC., priority 2021, published 2025).
